The results in this text go back to patent US6531604B2, “Benzothiepine derivatives, their production and use” (Takeda Chemical Industries, Ltd., priority 1998, dated 2003).

The experiment relates to interstitial cells prepared from the femur bone marrow of a normal rat. In words: Osteogenesis promoting effect: alkaline phosphatase activity in cultured rat bone marrow interstitial cells. The experiment is classed as cell-based. As to conditions: test compound 10^−5 M, added from 2nd day of culture, cultured additional 5 days; mean ± S.E. (n = 4); control 0.150 ± 0.009; ** p < 0.01 vs control. The method, then: Osteogenesis promoting effect:
Using the interstitial cells prepared from the femur bone marrow of a normal rat, an alkaline phosphatase activity was measured as an index of osteogenesis. Briefly, according to the method of Maniatopoulos et al. [Cell Tissue Research, volume 254, P.317 (1988)], the interstitial cells were prepared from the femur bone of a Sprague-Dawley male rat, 7 weeks of age, and cultured in an α-MEM (minimum essential medium) solution containing dexamethasone (10^−7M) and β-glycerophosphoric acid (10^−2M) in order to generate calcified bony tissue. One week later, the confluent primary cells were treated with 0.25% trypsin-0.2% EDTA solution, recovered, and subcultured on a culture plate at a cell density of […], (culture day 0). From the 2nd day of the culture, a test compound (10^−5 M) was added to the above culture solution, and cultured for additional 5 days. The cells were washed with a phosphate buffer, and after addition of 0.2% Nonidet P-40, they were homogenized and centrifuged at 3,000 rpm for 10 minutes. The supernatant was measured for an alkaline phosphatase activity according to the method of Lowry et al. [Journal of Biological Chemistry, volume 207, P.19 (1954)]. […] Statistical analysis was performed by means of the Student's t-test.
Regarding `C[C@@H]1S[C@@H](C(=O)Nc2ccc(Cn3oc(=O)[nH]c3=O)cc2)Cc2cc3c(cc2C1=O)OCO3` [Example no. 11, (2R,4S)-N-[4-(3,5-Dioxo-1,2,4-oxadiazolidin-2-ylmethyl)phenyl]-1,2,4,5-tetrahydro-7,8-methylenedioxy-4-methyl-5-oxo-3-benzothiepine-2-carboxamide], the “Alkaline phosphatase activity (A405)” value is 0.399 ± 0.069** A405.

`C[C@@H]1S[C@@H](C(=O)Nc2ccc(CN3CCOCC3)cc2)Cc2cc3c(cc2C1=O)OCO3` [Example no. 4, (2R,4S)-N-[4-(4-Morpholinylmethyl)phenyl]-1,2,4,5-tetrahydro-7,8-methylenedioxy-4-methyl-5-oxo-3-benzothiepine-2-carboxamide]: the “Alkaline phosphatase activity (A405)” value was 0.394 ± 0.036** A405.

For `C[C@@H]1S[C@@H](C(=O)Nc2ccc(CC3OC(=O)NC3=O)cc2)Cc2cc3c(cc2C1=O)OCO3` (stereo partly drawn) [Example no. 10, (2R,4S)-N-[4-(2,4-Dioxo-oxazolidin-5-yl-methyl)phenyl]-1,2,4,5-tetrahydro-7,8-methylenedioxy-4-methyl-5-oxo-3-benzothiepine-2-carboxamide], the “Alkaline phosphatase activity (A405)” value was 0.535 ± 0.069** A405.

Turning to `C[C@@H]1S[C@@H](C(=O)Nc2ccc(CC3SC(=O)NC3=O)cc2)Cc2cc3c(cc2C1=O)OCO3` (stereo partly drawn) [Example no. 1, (2R,4S)-N-[4-(2,4-Dioxothiazolidin-5-yl-methyl)phenyl]-1,2,4,5-tetrahydro-7,8-methylenedioxy-4-methyl-5-oxo-3-benzothiepine-2-carboxamide], the “Alkaline phosphatase activity (A405)” value was 0.489 ± 0.050** A405.
